# Measured values reported in PubChem BioAssay AID1259407 (Chemical Carcinogenesis Research Information System (CCRIS), 2018).
# Calls of active or inactive are those of the source. No rule for the calls is given here.
# Test system: CCRIS mutagenicity, Ames/micronucleus/aberration tests
# Assay: CCRIS mutagenicity studies
# [1] = Test System: AMES SALMONELLA TYPHIMURIUM, Strain/Indicator: TA98, Metabolic Activation: NONE, Method: STANDARD PLATE
# [2] = Test System: AMES SALMONELLA TYPHIMURIUM, Strain/Indicator: TA100, Metabolic Activation: NONE, Method: STANDARD PLATE
# [3] = Test System: AMES SALMONELLA TYPHIMURIUM, Strain/Indicator: TA1535, Metabolic Activation: NONE, Method: STANDARD PLATE
# [4] = Test System: AMES SALMONELLA TYPHIMURIUM, Strain/Indicator: TA100, Metabolic Activation: NONE, Method: PREINCUBATION
# [5] = Test System: AMES SALMONELLA TYPHIMURIUM, Strain/Indicator: TA1535, Metabolic Activation: NONE, Method: PREINCUBATION
# [6] = Test System: AMES SALMONELLA TYPHIMURIUM, Strain/Indicator: TA98, Metabolic Activation: NONE, Method: PREINCUBATION
# [7] = Test System: AMES SALMONELLA TYPHIMURIUM, Strain/Indicator: TA98, Metabolic Activation: RAT, LIVER, S-9, AROCLOR 1254 (10%), Method: PREINCUBATION
# [8] = Test System: AMES SALMONELLA TYPHIMURIUM, Strain/Indicator: TA100, Metabolic Activation: RAT, LIVER, S-9, AROCLOR 1254 (10%), Method: PREINCUBATION
smiles,measurement,setting,value
C=C(C)OC(C)=O,mutagenic call,"Test System: AMES SALMONELLA TYPHIMURIUM, Strain/Indicator: TA98, Metabolic Activation: HAMSTER, LIVER, S-9, AROCLOR 1254, Method: STANDARD PLATE",inactive; negative
same,mutagenic call,[1],inactive; negative
same,mutagenic call,"Test System: AMES SALMONELLA TYPHIMURIUM, Strain/Indicator: TA98, Metabolic Activation: RAT, LIVER, S-9, AROCLOR 1254, Method: STANDARD PLATE",inactive; negative
same,mutagenic call,"Test System: AMES SALMONELLA TYPHIMURIUM, Strain/Indicator: TA100, Metabolic Activation: HAMSTER, LIVER, S-9, AROCLOR 1254, Method: STANDARD PLATE",inactive; negative
same,mutagenic call,[2],inactive; negative
same,mutagenic call,"Test System: AMES SALMONELLA TYPHIMURIUM, Strain/Indicator: TA100, Metabolic Activation: RAT, LIVER, S-9, AROCLOR 1254, Method: STANDARD PLATE",inactive; negative
same,mutagenic call,"Test System: AMES SALMONELLA TYPHIMURIUM, Strain/Indicator: TA1535, Metabolic Activation: HAMSTER, LIVER, S-9, AROCLOR 1254, Method: STANDARD PLATE",inactive; negative
same,mutagenic call,[3],inactive; negative
same,mutagenic call,"Test System: AMES SALMONELLA TYPHIMURIUM, Strain/Indicator: TA1535, Metabolic Activation: RAT, LIVER, S-9, AROCLOR 1254, Method: STANDARD PLATE",inactive; negative
same,mutagenic call,"Test System: AMES SALMONELLA TYPHIMURIUM, Strain/Indicator: TA1537, Metabolic Activation: HAMSTER, LIVER, S-9, AROCLOR 1254, Method: STANDARD PLATE",inactive; negative
same,mutagenic call,"Test System: AMES SALMONELLA TYPHIMURIUM, Strain/Indicator: TA1537, Metabolic Activation: NONE, Method: STANDARD PLATE",inactive; negative
same,mutagenic call,"Test System: AMES SALMONELLA TYPHIMURIUM, Strain/Indicator: TA1537, Metabolic Activation: RAT, LIVER, S-9, AROCLOR 1254, Method: STANDARD PLATE",inactive; negative
same,mutagenic call,"Test System: AMES SALMONELLA TYPHIMURIUM, Strain/Indicator: TA1538, Metabolic Activation: HAMSTER, LIVER, S-9, AROCLOR 1254, Method: STANDARD PLATE",inactive; negative
same,mutagenic call,"Test System: AMES SALMONELLA TYPHIMURIUM, Strain/Indicator: TA1538, Metabolic Activation: NONE, Method: STANDARD PLATE",inactive; negative
same,mutagenic call,"Test System: AMES SALMONELLA TYPHIMURIUM, Strain/Indicator: TA1538, Metabolic Activation: RAT, LIVER, S-9, AROCLOR 1254, Method: STANDARD PLATE",inactive; negative
same,mutagenic call,"Test System: Mouse lymphoma, Strain/Indicator: L5178Y (tk+/tk-), Metabolic Activation: None, Method: Suspension/plate",active; inconclusive (previously evaluated positive)
same,mutagenic call,"Test System: Mouse lymphoma, Strain/Indicator: L5178Y (tk+/tk-), Metabolic Activation: Rat, liver, S-9, Aroclor 1254, Method: Suspension/plate",inactive; negative
Cc1ccc(/C=C/c2ccc([N+](=O)[O-])cc2)cc1,mutagenic call,"Test System: AMES SALMONELLA TYPHIMURIUM, Strain/Indicator: TA98 (NR), Metabolic Activation: NONE, Method: STANDARD PLATE",inactive; negative
same,mutagenic call,"Test System: AMES SALMONELLA TYPHIMURIUM, Strain/Indicator: TA98 (NR), Metabolic Activation: S-9, Method: STANDARD PLATE",active; positive
same,mutagenic call,[1],active; positive
same,mutagenic call,"Test System: AMES SALMONELLA TYPHIMURIUM, Strain/Indicator: TA98, Metabolic Activation: RAT, LIVER, S-9, AROCLOR, Method: STANDARD PLATE",active; positive
same,mutagenic call,"Test System: AMES SALMONELLA TYPHIMURIUM, Strain/Indicator: TA98, Metabolic Activation: S-9, Method: STANDARD PLATE",active; positive
same,mutagenic call,"Test System: AMES SALMONELLA TYPHIMURIUM, Strain/Indicator: TA100 (NR), Metabolic Activation: NONE, Method: STANDARD PLATE",inactive; negative
same,mutagenic call,"Test System: AMES SALMONELLA TYPHIMURIUM, Strain/Indicator: TA100 (NR), Metabolic Activation: S-9, Method: STANDARD PLATE",active; positive
same,mutagenic call,[2],active; positive
same,mutagenic call,"Test System: AMES SALMONELLA TYPHIMURIUM, Strain/Indicator: TA100, Metabolic Activation: RAT, LIVER, S-9, AROCLOR, Method: STANDARD PLATE",active; positive
same,mutagenic call,"Test System: AMES SALMONELLA TYPHIMURIUM, Strain/Indicator: TA100, Metabolic Activation: S-9, Method: STANDARD PLATE",active; positive
Clc1ccc(CC2CO2)cc1 (stereo not drawn),mutagenic call,[4],active; positive
same,mutagenic call,[2],active; positive
same,mutagenic call,[5],active; positive
same,mutagenic call,[3],active; positive
O=c1c2[nH]c3ccccc3c2nnn1/N=C/c1ccc(O)cc1,mutagenic call,"Test System: AMES SALMONELLA TYPHIMURIUM, Strain/Indicator: TA97, Metabolic Activation: NONE, Method: PREINCUBATION",active; positive
same,mutagenic call,"Test System: AMES SALMONELLA TYPHIMURIUM, Strain/Indicator: TA97, Metabolic Activation: RAT, LIVER, S-9, AROCLOR 1254 (10%), Method: PREINCUBATION",active; positive
same,mutagenic call,[6],active; positive
same,mutagenic call,[7],active; positive
same,mutagenic call,[4],active; positive
same,mutagenic call,[8],active; positive
same,mutagenic call,"Test System: AMES SALMONELLA TYPHIMURIUM, Strain/Indicator: TA102, Metabolic Activation: NONE, Method: PREINCUBATION",active; positive
same,mutagenic call,"Test System: AMES SALMONELLA TYPHIMURIUM, Strain/Indicator: TA102, Metabolic Activation: RAT, LIVER, S-9, AROCLOR 1254 (10%), Method: PREINCUBATION",active; positive
O=c1oc2cccc3ccc4cccc1c4c32,mutagenic call,[6],inactive; negative
same,mutagenic call,"Test System: AMES SALMONELLA TYPHIMURIUM, Strain/Indicator: TA98, Metabolic Activation: RAT, LIVER, S-9, AROCLOR 1254, Method: PREINCUBATION",inactive; negative
same,mutagenic call,[4],inactive; negative
same,mutagenic call,"Test System: AMES SALMONELLA TYPHIMURIUM, Strain/Indicator: TA100, Metabolic Activation: RAT, LIVER, S-9, AROCLOR 1254, Method: PREINCUBATION",inactive; negative
Nc1ccc(N)c2ccccc12,mutagenic call,"Test System: AMES SALMONELLA TYPHIMURIUM, Strain/Indicator: TA98, Metabolic Activation: HAMSTER, LIVER, S-9, AROCLOR 1254 (5%), Method: PREINCUBATION",inactive; negative
same,mutagenic call,"Test System: AMES SALMONELLA TYPHIMURIUM, Strain/Indicator: TA98, Metabolic Activation: HAMSTER, LIVER, S-9, AROCLOR 1254 (30%), Method: PREINCUBATION",active; positive
same,mutagenic call,[6],inactive; negative
same,mutagenic call,"Test System: AMES SALMONELLA TYPHIMURIUM, Strain/Indicator: TA98, Metabolic Activation: RAT, LIVER, S-9, AROCLOR 1254 (5, 10 OR 30%), Method: PREINCUBATION",inactive; negative
same,mutagenic call,[7],inactive; negative
same,mutagenic call,"Test System: AMES SALMONELLA TYPHIMURIUM, Strain/Indicator: TA100, Metabolic Activation: HAMSTER, LIVER, S-9, AROCLOR 1254 (5%), Method: PREINCUBATION",inactive; negative
same,mutagenic call,"Test System: AMES SALMONELLA TYPHIMURIUM, Strain/Indicator: TA100, Metabolic Activation: HAMSTER, LIVER, S-9, AROCLOR 1254 (30%), Method: PREINCUBATION",active; positive
same,mutagenic call,"Test System: AMES SALMONELLA TYPHIMURIUM, Strain/Indicator: TA100, Metabolic Activation: RAT, LIVER, S-9, AROCLOR 1254 (5, 10 OR 30%), Method: PREINCUBATION",inactive; negative
same,mutagenic call,[8],inactive; negative
same,mutagenic call,"Test System: AMES SALMONELLA TYPHIMURIUM, Strain/Indicator: TA1535, Metabolic Activation: HAMSTER, LIVER, S-9, AROCLOR 1254 (10%), Method: PREINCUBATION",inactive; negative
same,mutagenic call,[5],inactive; negative
same,mutagenic call,"Test System: AMES SALMONELLA TYPHIMURIUM, Strain/Indicator: TA1535, Metabolic Activation: RAT, LIVER, S-9, AROCLOR 1254 (10%), Method: PREINCUBATION",inactive; negative
same,mutagenic call,"Test System: AMES SALMONELLA TYPHIMURIUM, Strain/Indicator: TA1537, Metabolic Activation: HAMSTER, LIVER, S-9, AROCLOR 1254 (10%), Method: PREINCUBATION",inactive; negative
same,mutagenic call,"Test System: AMES SALMONELLA TYPHIMURIUM, Strain/Indicator: TA1537, Metabolic Activation: NONE, Method: PREINCUBATION",inactive; negative
same,mutagenic call,"Test System: AMES SALMONELLA TYPHIMURIUM, Strain/Indicator: TA1537, Metabolic Activation: RAT, LIVER, S-9, AROCLOR 1254 (10%), Method: PREINCUBATION",inactive; negative
